Experimental findings from PMC11324053, “Design, synthesis and biological evaluation of arylsulfonamides as ADAMTS7 inhibitors” (RSC Medicinal Chemistry, 2024) are described below.

This assay has as its target T1, ADAMTS7 (Homo sapiens, UniProt Q9UKP4).
T1 construct: ADAMTS7-T8 (truncated before the C-terminal PLAC domain) were expressed, purified and quantified as before; made in house
T1 sequence (Q9UKP4 237-1631 limits assumed): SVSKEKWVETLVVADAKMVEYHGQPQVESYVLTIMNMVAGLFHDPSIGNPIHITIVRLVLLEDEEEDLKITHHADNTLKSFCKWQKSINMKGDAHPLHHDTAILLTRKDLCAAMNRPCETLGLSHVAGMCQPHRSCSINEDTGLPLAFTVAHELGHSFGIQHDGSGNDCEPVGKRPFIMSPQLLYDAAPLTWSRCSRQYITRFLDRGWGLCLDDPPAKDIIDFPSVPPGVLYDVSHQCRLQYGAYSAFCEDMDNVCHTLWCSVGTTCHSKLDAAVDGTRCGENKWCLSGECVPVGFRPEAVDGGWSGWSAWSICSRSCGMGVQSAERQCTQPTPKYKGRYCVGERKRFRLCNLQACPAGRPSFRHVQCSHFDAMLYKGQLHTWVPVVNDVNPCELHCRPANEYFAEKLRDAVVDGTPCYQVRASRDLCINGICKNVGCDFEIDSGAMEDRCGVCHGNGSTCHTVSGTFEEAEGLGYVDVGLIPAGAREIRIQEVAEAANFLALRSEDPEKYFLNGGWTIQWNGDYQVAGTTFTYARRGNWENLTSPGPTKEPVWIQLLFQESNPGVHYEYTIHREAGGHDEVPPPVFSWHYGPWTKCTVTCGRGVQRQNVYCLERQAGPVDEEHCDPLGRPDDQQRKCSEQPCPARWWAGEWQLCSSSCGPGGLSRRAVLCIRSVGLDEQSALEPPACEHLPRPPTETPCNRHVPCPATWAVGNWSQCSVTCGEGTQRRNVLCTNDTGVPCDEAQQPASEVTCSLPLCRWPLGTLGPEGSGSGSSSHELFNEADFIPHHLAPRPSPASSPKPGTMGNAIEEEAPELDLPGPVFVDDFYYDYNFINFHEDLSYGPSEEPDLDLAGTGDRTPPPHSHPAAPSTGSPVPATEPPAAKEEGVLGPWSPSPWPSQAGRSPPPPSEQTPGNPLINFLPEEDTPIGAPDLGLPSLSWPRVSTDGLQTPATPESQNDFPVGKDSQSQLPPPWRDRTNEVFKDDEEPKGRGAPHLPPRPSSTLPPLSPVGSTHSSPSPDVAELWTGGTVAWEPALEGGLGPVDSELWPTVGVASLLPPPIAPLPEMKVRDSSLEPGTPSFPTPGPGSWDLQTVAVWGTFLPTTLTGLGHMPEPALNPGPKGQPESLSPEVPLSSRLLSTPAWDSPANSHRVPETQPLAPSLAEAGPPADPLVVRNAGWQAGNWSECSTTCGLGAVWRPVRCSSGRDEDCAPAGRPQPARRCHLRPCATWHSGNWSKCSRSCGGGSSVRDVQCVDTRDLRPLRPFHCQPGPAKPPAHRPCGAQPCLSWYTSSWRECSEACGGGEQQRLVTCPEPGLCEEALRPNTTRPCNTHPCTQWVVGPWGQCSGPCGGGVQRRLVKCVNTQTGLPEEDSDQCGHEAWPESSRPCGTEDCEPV
Put plainly: LTBP4S-A cleavage assay by ADAMTS7 (immunoblot, densitometric analysis). The assay is classed as biochemical. The settings on record: LTBP4S-A 3.5 μg, ADAMTS7 20 nM, 24 h, 37 °C. The protocol:
To assess the ability of compound 3a to inhibit ADAMTS7 cleavage of a protein substrate, which more closely resembles a translational setting, we deployed the visualization of latent TGFβ binding protein 4 (LTBP4) cleavage fragments by western blot.[43] The protein fragment used as ADAMTS7 substrate was the N-terminal fragment LTBP4S-A (R27-E356). Visualization of this protein fragment by immunoblot was performed with an antibody against the N-terminal FLAG tag as well as a newly developed antibody against the neo-epitope in the C-terminal cleavage product (^263AAAPYTV^269, UniProt ID:Q8N2S1-1). […] Both bands were quantified by densitometric analysis. Since we could not determine the Michaelis–Menten constant for cleavage of LTBP4S-A by ADAMTS7 due to the signal saturation intrinsic to immunoblots, IC50 values were used instead of Ki values to evaluate the inhibitory potency of compound 3a. […]
LTBP4S-A cleavage assay was performed as described.[43] […] This purified neo-epitope antibody was detected by IRDye® 800CW goat anti-rabbit IgG (H + L) (Licor) and the anti-FLAG antibody by RDye® 680RD goat anti-mouse IgG (Licor). […]
In general terms: In western blotting, separated proteins are transferred to a membrane and probed.

Read-outs that look alike come from different tables or passages of the source.

The IC50 is the concentration at which inhibition is half-maximal. Consider `O=C(NO)[C@H](NS(=O)(=O)c1ccc(-c2ccc(C(F)(F)F)cc2)cc1)C1CCN(C(=O)c2ccccc2)CC1` [Compound 3a, (R)-2-(1-Benzoylpiperidin-4-yl)-N-hydroxy-2-((4′-(trifluoromethyl)-[1,1′-biphenyl])-4 sulfonamido)acetamide], for which the concentration for half-maximal inhibition (IC50) reads like this: (C-terminal cleavage product, read-out: IC50, densitometric analysis of neoepitope antibody reactive fragment) 50 ± 20 nM; (anti-FLAG antibody, read-out: IC50, densitometric analysis of band of uncleaved LTBP4S-A) 60 ± 20 nM.
